The METLIN SMRT retention time set (Domingo-Almenara et al. 2019)

Test: gradient 5% acetonitrile 3 min, to 50% in 2 min, to 85% in 15 min, held 3 min, 100 µL/min
Conditions: column: Zorbax Extend-C18 2.1 x 50 mm; eluents: water / acetonitrile, 0.1% formic acid
Procedure, shortened: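 Over 3 months, pure standards in mixtures of ~100 molecules were run by HPLC coupled to a quadrupole time-of-flight mass spectrometer in positive and negative ionization mode. The column was a Zorbax Extend-C18 (2.1 × 50 mm, 1.8 μm) at 100 μL/min, eluted with water and acetonitrile each holding 0.1% formic acid, with 40 μL dead and 900 μL dwell volumes. Retention time was determined from adduct peaks chosen by software and checked manually.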

RP-LC retention time [s] | SMILES
693 | Cc1cc2c(=O)n(CC(=O)NCc3ccc(F)cc3)c3cccnc3n2n1
1150 | Cc1ccc(Nc2c(-c3ccc(Cl)cc3)nc3cnccn23)cc1Cl
669 | Cc1cccc(N(C)C(=O)Cn2nc3n(c2=O)CCCC3)c1
1170 | CCOC(=O)c1ccc(NC(=O)c2cc(C(C)C)n3nccc3n2)cc1
640 | CNC(=O)C1CCCN1C(=O)Nc1ccc(C)cc1 (stereo unspecified)
670 | CCOC(=O)Nc1nc2c(s1)CN(C(=O)Nc1ccc3c(c1)OCO3)CC2
680 | Cc1ccc2c(Nc3ccc(F)c(F)c3)c(C(=O)N3CCCC3)cnc2n1
962 | COc1ccccc1-c1nc(-c2ccc3nnn(C(C)C)c3c2)no1
612 | Cc1noc([C@@H]2CN(CCCc3ccccc3)C[C@H]2CO)n1
1140 | Cc1ccccc1-c1nc(C2CC(=O)N(c3ccc(F)c(Cl)c3)C2)no1 (stereo unspecified)
762 | COc1ccc(S(=O)(=O)N2C[C@@H](F)C[C@H]2C(=O)N2CCCCC2)cc1
775 | CO[C@H]1C(=O)N(C(C)C)[C@H]1C1CCN(S(=O)(=O)c2cccc3cccnc23)CC1
623 | CNC(=O)CCc1cc2cc(C)ccc2[nH]c1=O
705 | CCn1ccc(NC(=O)NC(C)(C)C)n1
715 | O=c1c(Br)c(-c2ccccc2)[nH]c2ccccc12
842 | CCc1nn(CC(=O)NCCc2c[nH]c3ccccc23)c(=O)c2cc3sccc3n12
784 | CCc1onc(C)c1C1CCCN1C(=O)c1cccc(F)c1 (stereo unspecified)
984 | CCCn1cc(S(=O)(=O)NCc2ccc(C)c(C)c2)c2cccnc21
600 | CCOC(=O)c1cc(S(=O)(=O)N2CCCC2C(=O)N2CCN(c3ccccn3)CC2)cn1C (stereo unspecified)
636 | Cc1ccc2sc(N(CCCn3ccnc3)C(=O)c3ccc4c(c3)OCCO4)nc2c1C
1330 | COc1cc(Br)ccc1NC(=O)C1CCCN(c2nc3ccccc3nc2OC)C1 (stereo unspecified)
776 | COc1ccc(C2=NC3(CCN(C(=O)c4ccc(OC)cc4OC)CC3)NC2=O)cc1

RP-LC retention time [s] | SMILES
1030 | CCCCn1cnc2c(-c3ccccc3)cn(CC(=O)Nc3ccccc3)c2c1=O
624 | O=C(COc1ncccn1)NC1CCCCC1
979 | CCn1c(=O)sc2cc(S(=O)(=O)N3CCC(C(=O)NCc4ccc(F)cc4)CC3)ccc21
726 | Cc1ccc(Cn2cccc2C(=O)C(=O)N2CCN(c3ccccn3)CC2)cc1C
1080 | COc1ccccc1-c1nc(-c2ccc(S(=O)(=O)N3CCCC3)cc2)no1
683 | Cc1cccc2nnc(N3CCN(C(=O)c4ccc(Br)cc4)CC3)n12
681 | CCc1cc(=O)n(CC(=O)Nc2ccc3c(c2)OCCO3)c(N2CCOCC2)n1
802 | O=C(c1cc2n(n1)CCCN(Cc1ccc(F)cc1)C2=O)N1CCN(c2ccccn2)CC1
967 | Cc1ccn2c(Nc3ccc(Cl)cc3)c(-c3ccc(N4CCOCC4)cc3)nc2c1
819 | COc1ccc(C(=O)Cn2c(=O)n(Cc3ccc4c(c3)OCO4)c(=O)c3ncccc32)cc1
767 | Cn1cc(C2=C(c3cn(CCCSC(=N)N)c4ccccc34)C(=O)NC2=O)c2ccccc21
942 | COc1ccc(C2CC(=O)N(c3ccc(Cl)cc3)C(=O)C2)cc1
1160 | O=C1C2N=NN(Cc3nc(-c4ccc(Cl)cc4)no3)C2C(=O)N1c1ccc2c(c1)CCC2 (stereo unspecified)
869 | Cc1ccc(N(C(=O)Cc2ccccc2)C2C=CS(=O)(=O)C2)cc1Cl (stereo unspecified)
677 | O=C(Nc1ccc2c(c1)OCO2)C1CCN(c2cc(N3CCCCC3)ncn2)CC1
741 | COc1ccc(NC(=O)C2CCN(S(=O)(=O)c3ccc4c(c3)CCCC(=O)N4)CC2)c(OC)c1
615 | COc1ccccc1N1C(=O)C2ON(c3ccccc3)C(c3cccc([N+](=O)[O-])c3)C2C1=O (stereo unspecified)
1080 | CCCN1C(=O)c2cc(S(=O)(=O)Nc3ccccc3C)ccc2Oc2cccnc21
768 | O=C(NCCc1csc(-c2cccs2)n1)C1CCN(C(=O)c2cccc(F)c2)CC1
1300 | Cc1ccc(C2Cn3nnc(-c4nc(-c5ccc(F)cc5)no4)c3CO2)c(C)c1 (stereo unspecified)
579 | Nc1nc(Nc2ccccc2)nc2c1ncn2[C@@H]1O[C@H](CO)[C@H](O)C1O (stereo partly specified)
1190 | CCOc1ccc(-c2noc(Cn3c(=O)n(C(C)C)c(=O)c4ccccc43)n2)cc1

RP-LC retention time [s] | SMILES
598 | COC(=O)c1ccc(Nc2c(C(=O)N3CCCC3)cnc3nc(C)ccc23)cc1
1150 | Cc1ccc(-c2nc(-c3ccc4c(c3)nc(C)c(=O)n4C)no2)cc1F
1050 | CCn1c(=O)c2ccccc2n(Cc2nc(-c3ccc(OC(C)C)cc3)no2)c1=O
1240 | O=S(=O)(c1cc(Cl)ccc1Cl)N1CCc2nc(-c3ccc(F)cc3)ncc2C1
593 | Cc1ccc2nc(NC3=NCN(CCO)CN3)nc(C)c2c1
641 | O=C(NCCc1c[nH]c2ccccc12)c1nc[nH]c1C(=O)NCc1ccccn1
736 | Cc1ccn2c(NC(=O)c3cccc(C(F)(F)F)c3)c(-c3ccccc3)nc2c1
957 | Cc1ccc(N2C(=O)C3N=NN(Cc4nc(-c5ccc6c(c5)OCO6)no4)C3C2=O)cc1 (stereo unspecified)
661 | O=C(c1ccco1)N1CCCn2cc(-c3ccc4c(c3)OCO4)nc21
720 | O=C(Nc1ccc2c(c1)OCCO2)c1ccc(-n2cc(CNC(=O)C3CC3)cn2)cc1
934 | CN1CCCc2cc(C(=O)NC3CCCCC3)sc21
675 | CC(C)(C)NC(=O)N1CCC(c2nc(CCNC(=O)C3CC3)cs2)CC1
655 | Cc1c2cnn(CC(=O)NCCN(C)C)c(=O)c2c(C)n1Cc1ccccc1Cl
821 | COC(=O)c1ncn2c1C(=O)N(CCC1=CCCCC1)C(C)(C(=O)NCc1ccccc1)C2 (stereo unspecified)
744 | O=C(c1cccc(F)c1)N1CCC(n2c(-c3ccco3)nc3cccnc32)C1 (stereo unspecified)
705 | O=C(Cn1c(=O)c2cc(C3CC3)nn2c2ncccc21)NC1CCCC1
958 | CCC1CCCCN1S(=O)(=O)c1cc(-c2cc(C)[nH]n2)sc1C (stereo unspecified)
1250 | COc1ccc(NC(=O)c2c(O)c3cccnc3n(-c3ccc(F)cc3)c2=O)cc1Cl
835 | CCCn1cc(CCNC(=O)Nc2ccc(F)c(Cl)c2)c2cccnc21
916 | Cn1c(C(=O)NCCc2c[nH]c3ccccc23)cc2sccc21
877 | COCCCNC(=O)C1CCN(S(=O)(=O)N(CC(C)C)CC(C)C)CC1

SMILES | RP-LC retention time [s]
O=C(Cc1ccc(F)cc1)N1CCN(CC(O)c2cccs2)CC1 (stereo unspecified) | 569
